Test results reported in patent US20220096450A1, “Compounds and Methods for Treating or Preventing Heart Failure” (DREXEL UNIVERSITY, priority 2019, published 2022).

Biological target: SQOR (Homo sapiens, UniProt Q9Y6N5)
Assay: DCIP endpoint assay of SQOR activity
Assay type: biochemical
Settings: Table 1, SAR of Set A/A′ and Set B; read-out: IC50
Description: The assay is based on the ability of reduced CoQ1, which is produced in the SQOR reaction, to nonenzymically reduce 2,6-dichloroindiphenol (DCIP) (Δεox-red=20 mM−1 cm−1 at 600 nm). Reaction mixtures containing SQOR, substrates (H2S, sulfite, CoQ1) and various concentrations of an inhibitor are incubated in 96-well plates for 60 s. The reactions are quenched by addition of formaldehyde and N-ethylmaleimide to denature SQOR and consume unreacted H2S, respectively, and are then incubated for 10 min prior to addition of DCIP. The absorbance at 600 nm is read 30 s after DCIP addition by using a BioTek Synergy 2 plate reader.

Chain of SQOR (Q9Y6N5 whole entry): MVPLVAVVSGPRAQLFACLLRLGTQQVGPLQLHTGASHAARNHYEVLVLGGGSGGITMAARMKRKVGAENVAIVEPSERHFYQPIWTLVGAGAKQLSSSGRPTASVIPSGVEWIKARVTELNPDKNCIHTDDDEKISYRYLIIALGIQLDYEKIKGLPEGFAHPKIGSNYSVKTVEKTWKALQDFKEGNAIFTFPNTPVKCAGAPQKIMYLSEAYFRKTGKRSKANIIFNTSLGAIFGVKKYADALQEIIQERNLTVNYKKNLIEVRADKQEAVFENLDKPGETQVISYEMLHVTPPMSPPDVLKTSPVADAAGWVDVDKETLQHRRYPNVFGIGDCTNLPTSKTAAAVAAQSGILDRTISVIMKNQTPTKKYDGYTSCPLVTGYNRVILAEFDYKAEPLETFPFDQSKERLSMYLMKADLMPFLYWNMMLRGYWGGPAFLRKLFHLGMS

Row | IC50 [nM] | SMILES
1 | 25 | O=[N+]([O-])c1cc(Cl)c(-n2cccc2)cc1N1CCCCC1 [Compound 2, 1-(4-chloro-2-nitro-5-(1H-pyrrol-1-yl)phenyl)piperidine]
2 | 890 | CCOc1nc(-c2ccccc2)cc(-c2ccc3c(c2)OCO3)c1C#N [Compound 12, 4-(benzo[d][1,3]dioxol-5-yl)-2-ethoxy-6-phenylnicotinonitrile]
3 | 11000 | Cc1ccc(-c2cc(-c3ccccc3)c(C#N)c(N)n2)cc1 [Compound 16, 2-amino-4-phenyl-6-(p-tolyl)nicotinonitrile]
4 | 3500 | COc1nc2c(c(-c3cc(Cl)ccc3F)c1C#N)Cc1ccccc1-2 [Compound 9, 4-(5-chloro-2-fluorophenyl)-2-methoxy-5H-indeno[1,2-b]pyridine-3-carbonitrile]
5 | 460 | O=[N+]([O-])c1cc(Cl)c(-n2cccc2)cc1N1CCCC1 [Compound 20, 1-(2-chloro-4-nitro-5-(pyrrolidin-1-yl)phenyl)-1H-pyrrole]

Same assay, conditions: Table 3; read-out: IC50

Row | IC50 [nM] | SMILES
6 | 230 | CCOC(=O)N1CCN(CCOc2nc(-c3ncccc3C)cc(-c3ccc(F)cc3)c2C#N)CC1 [Ethyl 4-(2-(3-cyano-4-(4-fluorophenyl)-6-(3-methylpyridin-2-yl)pyridin-2-yloxy)ethyl)piperazine-1-carboxylate]
7 | 1500 | COc1nc(-c2ccccc2)cc(-c2cccc(N)c2)c1C#N [4-(3-Aminophenyl)-2-methoxy-6-phenylpyridine-3-carbonitrile]
8 | 670 | COc1ccc(-c2cc(-c3ncccc3C)nc(OC)c2C#N)cc1 [2-Methoxy-4-(4-methoxyphenyl)-6-(3-methylpyridin-2-yl)pyridine-3-carbonitrile]
9 | 2700 | Cc1cccnc1-c1cc(-c2ccc(F)cc2)c(C#N)c(OCCCN(C)C)n1 [2-(3-(Dimethylamino)propoxy)-4-(4-fluorophenyl)-6-(3-methylpyridin-2-yl)pyridine-3-carbonitrile]
